The target of experiment [1] is T1, HRas^G12V (Homo sapiens (Human), UniProt P01112, G12V). Nature of the experiment: 19F T2-CPMG NMR score. The class given is binding. Here is the method: (§1) All NMR experiments were collected using 3 mm NMR tubes on a 600 MHz Bruker Avance III spectrometer equipped with a QCI helium cryoprobe and a SampleJet sample changer. The buffer used for NMR experiments was 25 mM sodium phosphate pH 7.4, 150 mM NaCl, 5 mM MgCl2, 1 mM TCEP-d16, 10% D2O. Data were processed using Bruker TopSpin.
(§2) Since the fragment library was curated using phosphate buffer, 25 mM sodium phosphate pH 7.4, 150 mM NaCl, 5 mM MgCl2, 1 mM TCEP-d16, 10% D2O Fresh TCEP was used for experiments. Screening was performed using ^1H-decoupled 1D ^19F experiment Bruker experiment (zgfhigqn.2) with 64 scans and a relaxation delay of 5 seconds. 50 μM HRas^G12V and 240 μM of each fragment in pools (mixtures) were used.
(§3) Hit confirmation was performed using the same ^19F experiment as the screen. Ligand-observed 1D ^1H, protein-observed 1D ^1H, ^1H T2-CPMG as well as Saturation Transfer Difference (STD) experiments were also run on the same samples. Ligand-observed 1D ^1H was run using the standard Bruker sequence with excitation sculpting (zgesgp) with a relaxation delay of 10 seconds and 16 scans per spectrum. Protein-observed 1D ^1H was performed using the same sequence with a relaxation delay of 1 second and 256 scans in order to increase the signal-to-noise of the protein resonances, while keeping the experimental time relatively short. The ^1H T2-CPMG experiment employed a modified version of the Bruker 1D ^1H zgesgp experiment with the addition of a CPMG pulse train after the first 90° excitation pulse. Total duration for each spin echo was fixed at 1 ms (τ=500 μs), while the number of echoes in the pulse train was varied according to the total time (T). The number of scans for each spectrum was 4 and eight delay times were run on each sample, ranging from 1 ms to 800 ms.
Because of its power to probe the intrinsically weak interactions (Kd) between targets and low-molecular weight fragments, NMR fragment-based lead discovery (FBLD) is a very useful biophysical method in early stage drug discovery, especially for challenging target proteins; including those with shallow binding pockets. Since FBLD screens are performed using low-molecular weight compounds (fragments) with lower structural complexity, the same chemical space can be covered using a smaller number of drug-like fragments versus use of large libraries of higher-molecular weight lead-like compounds as in high throughput screening (HTS) campaigns. Therefore, FBLD has a much higher hit rate than HTS using only several hundred to several thousand compounds in comparison with approximately 1 million compounds for HTS. Also, the small size of the compounds screened in FBLD means a better chance to fully match the interactions with small or transient pockets within the target protein, where these less tractable pockets cannot be accessed with standard classical HTS methods. […] We expect this methodology to be more advantageous than classical HTS methods for expediting the time from hit to lead (H2L) and allows for rapid access to high quality leads with lower attrition rates in subsequent lead optimization (LO) campaigns toward pre-clinical candidate selection. FBLD screening by NMR involves a “consensus binding” approach where several distinct NMR experiments (DLB, STD, CPMG) are applied along with a free-state aggregation detection method (T2-CPMG) to rank the compounds for their affinity to the receptor (HRAS in this case) whilst simultaneously monitoring the solution behavior and critical quality attributes of each compound. The latter helps to eliminate artifact binders which are highly problematic. We performed a fluorine screen involving 461 compounds that were derived from a highly curated fragment library. Moreover, two-dimensional ^15N HSQC NMR was also used to validate ligand-binding sites on the target protein. […]

Experiment [2] has as its target T1, HRas^G12V. The experiment is described as follows: Overall binding/activity in the various assays (NMR consensus binding). How it is done: as §2, §3
STD experiments consisted of two independent spectra with offsets of 0 ppm (on resonance) and −20 ppm (off resonance). […] 160 scans were acquired for each spectrum.
The results obtained with the compounds in the various assays described above are depicted in Table 21.
Because of its power to probe the intrinsically weak interactions (Kd) between targets and low-molecular weight fragments, NMR fragment-based lead discovery (FBLD) is a very useful biophysical method in early stage drug discovery, especially for challenging target proteins; including those with shallow binding pockets. Since FBLD screens are performed using low-molecular weight compounds (fragments) with lower structural complexity, the same chemical space can be covered using a smaller number of drug-like fragments versus use of large libraries of higher-molecular weight lead-like compounds as in high throughput screening (HTS) campaigns. Therefore, FBLD has a much higher hit rate than HTS using only several hundred to several thousand compounds in comparison with approximately 1 million compounds for HTS. Also, the small size of the compounds screened in FBLD means a better chance to fully match the interactions with small or transient pockets within the target protein, where these less tractable pockets cannot be accessed with standard classical HTS methods. […] We expect this methodology to be more advantageous than classical HTS methods for expediting the time from hit to lead (H2L) and allows for rapid access to high quality leads with lower attrition rates in subsequent lead optimization (LO) campaigns toward pre-clinical candidate selection. FBLD screening by NMR involves a “consensus binding” approach where several distinct NMR experiments (DLB, STD, CPMG) are applied along with a free-state aggregation detection method (T2-CPMG) to rank the compounds for their affinity to the receptor (HRAS in this case) whilst simultaneously monitoring the solution behavior and critical quality attributes of each compound. The latter helps to eliminate artifact binders which are highly problematic. We performed a fluorine screen involving 461 compounds that were derived from a highly curated fragment library. Moreover, two-dimensional ^15N HSQC NMR was also used to validate ligand-binding sites on the target protein. In addition, we employed protein-detected biophysical measurements were employed to determine fragment binding affinities to the target protein (Kd) by HSQC NMR. […]

Experiment [3] deals with T1, HRas^G12V. The experiment is described as follows: 19F DLB (ligand-observed 19F NMR) score. Also on record: scale not given here. The format is binding. Here is the method: as §1, §2
as §3, with “ms. […]” for “ms.”

Regarding `O=C(Cc1c[nH]c2cc(F)ccc12)NCCc1cccnc1` [Compound 10029], the “19F T2-CPMG Score” value on HRas^G12V [1] is 1.2. Also, at HRas^G12V [2], the “Binding to HRas^G12V (in words)” value is “low or no binding”. The “19F DLB Score” value on HRas^G12V [3] is recorded as 1.19.

On to `Cc1ccc(NC(=O)Cc2c[nH]c3cc(F)ccc23)cc1Cl` [Compound 10032], for which, at HRas^G12V [2], the “Binding to HRas^G12V (in words)” value is recorded as “low or no binding”.

Take `CN(C)CC(=O)Nc1cccc(NC(=O)Cc2c[nH]c3cc(Cl)ccc23)c1` [Compound 11068]: the “Binding to HRas^G12V (in words)” value on HRas^G12V [2] was “low or no binding”.

Take `O=C(O)C[C@H](c1ccccc1F)c1c[nH]c2cc(F)ccc12` (single isomer, unassigned) [Compound 11052]: the “Activity ranking on HRas^G12V (in words)” value at HRas^G12V [2] was “More active”. In addition, the “19F DLB Score” value on HRas^G12V [3] was “Non conclusive”.

`CC1(C)OC(=O)C(C(c2ccc(F)cc2F)c2c[nH]c3cc(F)ccc23)C(=O)O1` (stereo not shown) [Compound 11058]: at HRas^G12V [2], the “Binding to HRas^G12V (in words)” value is given as “low or no binding”. In addition, the “19F DLB Score” value on HRas^G12V [3] was “Non conclusive”.

With `Cc1c(Cl)cc(NC(=O)Cc2c[nH]c3cc(F)ccc23)cc1Cl` [Compound 10022], the “Binding to HRas^G12V (in words)” value on HRas^G12V [2] is given as “low or no binding”.

As for `CCOC(=O)c1cccc(NC(=O)Cc2c[nH]c3cc(F)ccc23)c1` [Compound 10019], the “Binding to HRas^G12V (in words)” value on HRas^G12V [2] was “low or no binding”.

With `CN(C)CC(=O)Nc1cccc(NC(=O)Cc2c[nH]c3cccc(Br)c23)c1` [Compound 11067], at HRas^G12V [2], the “Binding to HRas^G12V (in words)” value was “low or no binding”.

For `CCOC(=O)CC(c1ccccc1F)c1c[nH]c2cc(F)ccc12` (stereo not shown) [Compound 11045], the “Binding to HRas^G12V (in words)” value on HRas^G12V [2] was “low or no binding”. Also, at HRas^G12V [3], the “19F DLB Score” value came to 16.69.

With `CCOC(=O)C(Cc1c[nH]c2ccccc12)NC(=O)Cc1c[nH]c2cc(F)ccc12` (stereo not shown) [Compound 10112], the “Binding to HRas^G12V (in words)” value on HRas^G12V [2] was “low or no binding”.

As for `O=C(O)Cc1c[nH]c2c(Cl)cccc12` [Compound 11069], the “Binding to HRas^G12V (in words)” value on HRas^G12V [2] was “low or no binding”.

For `COc1ccccc1C(=O)NCCc1c[nH]c2cc(F)ccc12` [Compound 10043], the “Binding to HRas^G12V (in words)” value at HRas^G12V [2] is reported as “low or no binding”.

Consider `CN(C)CC(=O)Nc1cccc(NC(=O)Cc2c[nH]c3c(Cl)cccc23)c1` [Compound 11070], for which the “Binding to HRas^G12V (in words)” value at HRas^G12V [2] is listed as “low or no binding”.

As for `O=C(O)CC(c1cccc(O)c1)c1c[nH]c2cc(F)ccc12` (stereo not shown) [Compound 11054], the “Activity ranking on HRas^G12V (in words)” value on HRas^G12V [2] is given as “More active”. In addition, the “19F DLB Score” value on HRas^G12V [3] is “Non conclusive”.

As for `COc1ccc(NC(=O)Cc2c[nH]c3cc(F)ccc23)cc1OC` [Compound 10033], the “Binding to HRas^G12V (in words)” value at HRas^G12V [2] is given as “low or no binding”.

Regarding `CN(C)CC(=O)Nc1cccc(NC(=O)Cc2c[nH]c3cccc(Cl)c23)c1` [Compound 11071], the “Binding to HRas^G12V (in words)” value at HRas^G12V [2] is on record as “low or no binding”.

For the compound `O=C(Cc1c[nH]c2cc(F)ccc12)N1CC2(COC2)C1` [Compound 10069], the “19F T2-CPMG Score” value at HRas^G12V [1] came out at 21.31. The “19F DLB Score” value at HRas^G12V [3] amounted to 2.54.

For the compound `CC(C)C(=O)C1CN(C(=O)Cc2c[nH]c3cc(F)ccc23)C1` [Compound 10116], at HRas^G12V [1], the “19F T2-CPMG Score” value turned out to be 13.95. In addition, the “19F DLB Score” value at HRas^G12V [3] worked out at 1.88.

Turning to `CC(=O)Nc1cccc(C(=O)N2CCC(c3c[nH]c4cc(F)ccc34)C2)c1` (stereo not shown) [Compound 11023], the “19F T2-CPMG Score” value at HRas^G12V [1] is 16.39. For the same compound, the “19F DLB Score” value on HRas^G12V [3] is 3.07.

In the case of `O=C(Cc1c[nH]c2cc(F)ccc12)Nc1ccc2c(c1)OCO2` [Compound 10059], the “19F T2-CPMG Score” value at HRas^G12V [1] came to 18.99. Moreover, the “19F DLB Score” value at HRas^G12V [3] is 3.22.

For `CN(C)Cc1ccc(NC(=O)C(C#N)c2c[nH]c3cc(F)ccc23)cc1` (stereo not shown) [Compound 11030], at HRas^G12V [1], the “19F T2-CPMG Score” value worked out at 21.82. Besides, the “19F DLB Score” value on HRas^G12V [3] was found to be 2.9.

Regarding `CN(C)CCOC1CN(C(=O)Cc2c[nH]c3cc(F)ccc23)C1` [compound 10110], the “19F T2-CPMG Score” value on HRas^G12V [1] came to 25.25. Further, the “19F DLB Score” value at HRas^G12V [3] amounted to 2.87.

As for `COC(=O)c1ccc(NC(=O)Cc2c[nH]c3cc(F)ccc23)cc1Cl` [Compound 10017], the “Binding to HRas^G12V (in words)” value at HRas^G12V [2] is listed as “low or no binding”.

In the case of `O=C(C1CCC(O)CC1)N1CCC(c2c[nH]c3cc(F)ccc23)CC1` (stereo not shown) [Compound 11027], the “19F T2-CPMG Score” value on HRas^G12V [1] stood at 13.23. Moreover, the “19F DLB Score” value at HRas^G12V [3] turned out to be 2.48.

As for `O=C(O)CC(c1ccc(O)cc1)c1c[nH]c2cc(F)ccc12` (stereo not shown) [Compound 11055], at HRas^G12V [2], the “Activity ranking on HRas^G12V (in words)” value is on record as “More active”. Further, the “19F DLB Score” value on HRas^G12V [3] is given as “Non conclusive”.

Take `CC1CN(C(=O)C(CC(=O)O)c2c[nH]c3cc(F)ccc23)C1` (stereo not shown) [Compound 11034]: the “19F T2-CPMG Score” value at HRas^G12V [1] is given as 39.41. Also, the “19F DLB Score” value at HRas^G12V [3] is recorded as 1.7.

`O=C(C1CCNC1)N1CCC(c2c[nH]c3cc(F)ccc23)C1` (stereo not shown) [Compound 11036]: the “19F T2-CPMG Score” value at HRas^G12V [1] is 19.33. Moreover, the “19F DLB Score” value at HRas^G12V [3] was determined as 1.76.

In the case of `O=C(O)[C@H]1CCCCN1C(=O)Cc1c[nH]c2cc(F)ccc12` [Compound 10125], the “19F T2-CPMG Score” value at HRas^G12V [1] is listed as 10.15. Besides, the “19F DLB Score” value on HRas^G12V [3] is reported as 1.56.

With `CCC(C(=O)N1CC(C)C1)c1c[nH]c2cc(F)ccc12` (stereo not shown) [Compound 11005], the “19F T2-CPMG Score” value at HRas^G12V [1] was 16.59. For the same compound, on HRas^G12V [3], the “19F DLB Score” value was 3.19.

Regarding `COCCOC1CN(C(=O)Cc2c[nH]c3cc(F)ccc23)C1` [Compound 10103, 2-(6-fluoro-1H-indol-3-yl)-1-(3-(2-methoxyethoxy)azetidin-1-yl) ethan-1-one], the “19F T2-CPMG Score” value on HRas^G12V [1] was 7.82. Moreover, on HRas^G12V [3], the “19F DLB Score” value was 1.62.

These data come from US20240408064A1, “RAS INHIBITORS, COMPOSITIONS AND METHODS OF USE THEREOF” (GENETOLEAD INC., priority 2021, published 2024).
